Test results reported in patent US6229029A, “11β-aryl substituted 14,17-ethanoestratriens, method for the production of these compounds and their use in the production of medicaments” (Schering Aktiengesellschaft, priority 1997, dated 2001).
pIC50: −log10 of the molar value.

Columns and labels:
[1] = target: T1, human estrogen receptor (Homo sapiens, UniProt P03372); assay: Transactivation assay in HeLa cells (antiestrogenic action, vit-TK-CAT reporter); format: cell-based; details: in the presence of 0.1 nM estradiol, read-out: Antagonism IC50, HELA
T1 construct: expressed in transfected cells; host or cells: HeLa cells
T1 sequence (P03372 1-595): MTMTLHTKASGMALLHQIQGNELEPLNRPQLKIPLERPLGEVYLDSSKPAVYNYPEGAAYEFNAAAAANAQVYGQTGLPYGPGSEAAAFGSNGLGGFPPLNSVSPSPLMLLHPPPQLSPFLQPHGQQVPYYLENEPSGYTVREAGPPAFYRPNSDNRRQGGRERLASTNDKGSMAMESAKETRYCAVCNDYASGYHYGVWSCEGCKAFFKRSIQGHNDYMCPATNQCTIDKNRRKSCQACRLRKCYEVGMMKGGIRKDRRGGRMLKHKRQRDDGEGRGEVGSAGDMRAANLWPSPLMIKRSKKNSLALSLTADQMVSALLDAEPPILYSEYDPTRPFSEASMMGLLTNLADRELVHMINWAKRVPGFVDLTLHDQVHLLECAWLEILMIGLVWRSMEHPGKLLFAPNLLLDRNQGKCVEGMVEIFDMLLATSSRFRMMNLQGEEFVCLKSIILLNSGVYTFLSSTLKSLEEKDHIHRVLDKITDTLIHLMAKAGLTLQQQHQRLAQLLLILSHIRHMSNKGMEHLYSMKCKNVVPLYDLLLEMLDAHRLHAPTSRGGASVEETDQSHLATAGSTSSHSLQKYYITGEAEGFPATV

[2] = tested on: uterus of infant rats; assay: Uterus growth test on infant rats (estrogenic action); format: in vivo, rat; details: for Epithelial Height % E2 / Uterus Weight % E2: 3 days, infant rats
Source text: The influence of the compounds according to the invention on the uterus was examined in the uterus growth test (estrogenic action) and in the anti-uterus growth test (antiestrogenic action), both performed on infant rats.
In infant animals, both uterus and vagina show one of the estrogenic activity-dependent weight increases in their treatment with an estrogenically active substance. In the uterus, under estrogenic action, moreover, it results in a proliferation and height increase of the luminal epithelium.
Immature, normal rats (body weight 40-50 g) receive the substance s.c. over 3 days (d1-d3). On day 4 (d4), the animals are sacrificed with CO2. The uteri are prepared outside and weighed. A piece of the uterus, preferably a uterine horn, is set in formaldehyde for the histological evaluation and embedded in paraffin. The stimulation of the organ weights (relative to mg/100 g of body weight) and the epithelial height are indicated in percentage stimulation in comparison to the reference compound 17β-estradiol. (Substitution dose E2 0.3 μg/animal).

[3] = tested on: bone (distal femur / proximal tibia) of ovariectomized rats; assay: Bone studies in ovariectomized rats: bone density by pQCT; format: in vivo, rat; details: for % of Action of E2 (bone density femur) / Bone Density Femur: Table 4, distal femur; for % of Action of E2 (bone density femur) / Bone Density Femur / Bone Density / % of Action of E2 (bone density): 28 days; for Bone Density / % of Action of E2 (bone density): Table 5, proximal tibia
[4] = tested on: trabecular bone (proximal tibia) of ovariectomized rats; assay: Bone studies in ovariectomized rats: trabecular bone surface area (TB/TV), histological, proximal tibia; format: in vivo, rat; details: Table 4, proximal tibia, 28 days
Procedure: (§1) 3-month-old female rats are ovariectomized and treated once daily with the test compound immediately after the operation for 28 days. The administration is done subcutaneously in castor oil/benzyl benzoate or arachis oil/ethanol. The animals are sacrificed on the day after the last administration, and femurs, tibiae and uteri are removed. The uteri are weighed, fixed and worked up for histological studies. The determination of the bone density is carried out ex vivo on prepared long bones with use of pQCT (Quantitative Computer Tomography). The measurements are performed at a distance of 5-7 mm from the ball of the joint on the distal femur or the proximal tibia.
As an alternative, the action on the bone is determined by measuring the trabecular bone surface area of the secondary spongiosa in histological preparations of the distal femur or the proximal tibia. The result is expressed as the proportion, in percent, of the trabecular bone surface area in the measured total bone surface area ([…]). The bone density that is measured with use of QCT and the trabecular bone surface area that is determined in the histological section correlate well to one another. A comparison of the two measurement variables is therefore permissible.
About 50% of the bone density of the animals is lost by the ovariectomy. […] In Table 4 and FIG. 2, the results of this test for doses of 0.1-100 μg/animal/day are presented. The bone density was measured on the distal femur; for comparison, the trabecular bone surface area in the proximal tibia was measured. The data that are contained in Table 4 mean specifically:
TB/TV trabecular bone surface area/total bone surface area; histologically determined
For compound B according to the invention, their bone-protecting action was also determined (Table 6). For this purpose, the parameter of TB/TV was determined, which, however, with respect to the informational value for the bone-protecting activity correlates well to the parameter of BMD-qCT that is determined for compounds A and V. This can be ascertained from Table 4; both parameters were determined for compound A.

[5] = tested on: uterus of ovariectomized rats; assay: Uterus weight in ovariectomized rats of the bone studies; format: in vivo, rat
Procedure: as §1

[6] = tested on: bone / uterus of rats; assay: Dissociation of bone action/uterus action (FIG. 7); format: in vivo, rat; details: bone action vs uterus epithelial height, relative to 17β-estradiol
Source text: There, for compounds A, B and V, their bone-protecting actions are compared to the action of estrogen on the uterus (parameter: uterus epithelial height) as a function of dosage, in each case relative to the action of 17β-estradiol.

C[C@]12C[C@H](c3ccc(OCCCCCS(=O)(=O)Cc4ccccn4)cc3)[C@@H]3c4ccc(O)cc4CC[C@H]3[C@]13CC[C@@]2(O)CC3 [Compound A]
pIC50 [1]: 9.40
Epithelial Height % E2 ([2]; 0.01 mg/kg s.c.): 6 % E2
Uterus Weight % E2 ([2]; 0.01 mg/kg s.c.): 2 % E2
Epithelial Height % E2 ([2]; 0.1 mg/kg s.c.): -16 % E2
Uterus Weight % E2 ([2]; 0.1 mg/kg s.c.): 0 % E2
Epithelial Height % E2 ([2]; 1 mg/kg s.c.): -8 % E2
Uterus Weight % E2 ([2]; 1 mg/kg s.c.): -7 % E2
Epithelial Height % E2 ([2]; 10 mg/kg s.c.): -22 % E2
Uterus Weight % E2 ([2]; 10 mg/kg s.c.): -15 % E2
estrogenic action in the uterus (in words) ([2]; s.c., uterus growth test): without any estrogenic action in the uterus
% of Action of E2 (bone density femur) ([3]; 0.1 μg/animal/day s.c.): 14%
Bone Density Femur ([3]; 0.1 μg/animal/day s.c.): 296.4 mg Ca/ccm
% of Action of E2 (bone density femur) ([3]; 1 μg/animal/day s.c.): 31%
Bone Density Femur ([3]; 1 μg/animal/day s.c.): 309.6 mg Ca/ccm
% of Action of E2 (bone density femur) ([3]; 10 μg/animal/day s.c.): 60%
Bone Density Femur ([3]; 10 μg/animal/day s.c.): 331.3 mg Ca/ccm
% of Action of E2 (bone density femur) ([3]; 100 μg/animal/day s.c.): 50%
Bone Density Femur ([3]; 100 μg/animal/day s.c.): 324.1 mg Ca/ccm
Bone Density ([3]; 100 μg/animal/day s.c.): 361.8 mg Ca/ccm
% of Action of E2 (bone density) ([3]; 500 μg/animal/day s.c.): 49%
Bone Density ([3]; 500 μg/animal/day s.c.): 336.3 mg Ca/ccm
% of Action of E2 (bone density) ([3]; 2000 μg/animal/day s.c.): 65%
Bone Density ([3]; 2000 μg/animal/day s.c.): 348.8 mg Ca/ccm
effect of dose increase on bone action (in words) ([3]; above 100 μg/animal/day, proximal tibia): can no longer be increased by increasing the dose
protective action in comparison to 17β-estradiol ([3]; dose range between 10 and 100 μg/animal/day s.c.): 50-60%
degradation of bone density after ovariectomy (in words) ([3]; ovariectomized rats, 0.1-100 μg/animal/day): prevented or inhibited
dose with which an action of about 80% of 17β-estradiol on trabecular bone is achieved ([3]; proximal tibia, s.c.): 100 μg/animal/day
potency relative to comparison compound V, bone-protecting action ([3]; proximal tibia, vs compound V): 3 factor
TB/TV (Tibia) ([4]; 0.1 μg/animal/day s.c.): 17.2%
% of Action of E2 (TB/TV tibia) ([4]; 1 μg/animal/day s.c.): 17%
TB/TV (Tibia) ([4]; 1 μg/animal/day s.c.): 18.9%
% of Action of E2 (TB/TV tibia) ([4]; 10 μg/animal/day s.c.): 35%
TB/TV (Tibia) ([4]; 10 μg/animal/day s.c.): 22.5%
% of Action of E2 (TB/TV tibia) ([4]; 100 μg/animal/day s.c.): 62%
TB/TV (Tibia) ([4]; 100 μg/animal/day s.c.): 27.0%
% of Action of E2 (TB/TV tibia) ([4]; cell empty for 17β-estradiol, 0.1 μg/animal/day s.c.): 4.1%
stimulation of uterus weight (in words) ([5]; FIG. 3, test of Table 4, 0.1-100 μg/animal/day): stimulates the uterus weight, but at most does so marginally
stimulation of uterus weight (in words) ([5]; FIG. 5, test of Table 5, all tested dosages 100-2000 μg/animal/day): stimulates the uterus weight only marginally in all tested dosages
dissociation of bone-protecting action from estrogen action on the uterus (in words) [6]: most dissociated
